Experimental findings from patent US20210228511A1, “NEURONAL AGONISTS AND ISOTONIC OR HYPERTONIC SALINE FOR TREATING RESPIRATORY DISEASES” (University of Saskatchewan, priority 2020, published 2021) are described below.

Like-named read-outs stand apart in the source and are kept apart here.

Test [1] deals with ex vivo swine trachea preparations. The experiment in a line: Mucociliary clearance assay, tantalum disk movement on excised swine trachea.
Another test has as its system isolated swine trachea. Description: ASL layer height by synchrotron phase contrast imaging, isolated wild-type swine trachea (ex vivo).
A further test has as its system airway submucosal glands. The experiment in a line: Fluid secretion assay of airway submucosal glands (droplets under oil). The following applies: WT swine, FIG. 12. As for the experimental part: To confirm that both exemplary neuronal agonists capsaicin and menthol stimulate active fluid secretion by airway submucosal glands in WT swine, the effect of exemplary neuronal agonists menthol and capsaicin was on fluid secretion rate was measured using the secretion assay as described elsewhere^21. The mucosal layer from trachea or primary bronchus, with underlying glands, was dissected from the cartilage. A piece of tissue of about 1 cm^2 was pinned mucosal side up and mounted in a 35-mm-diameter plastic Petri dish lined with Sylgard (Dow Corning Corp). The serosal side was immersed in a bathing solution ( 1 ml volume), and the mucosa was in air. Before experimentation, the mucosal surface was gently cleaned and blotted dry with cotton swabs and further dried with a stream of air, after water-saturated mineral oil was placed on the surface.

Another test relates to live wild-type swine. The experiment in a line: ASL layer height by synchrotron phase contrast imaging, live wild-type swine. The following applies: added alone to HTS, WT swine in vivo, lesser extent than with capsaicin, FIG. 11.
The mark [2] stands for this setting: ex vivo wild-type trachea, HTS 7% w/v NaCl, 18 min.

Turning to `C=C(C)[C@@H]1CC[C@@H](C)C[C@H]1O` [(−)-isopulegol, (1R,2S,5R)-2-Isopropenyl-5-methylcyclohexanol], in test [1] (wild-type swine ex vivo, added to HTS, measured at 0, 90 and 150 min, FIG. 15), the “duration of HTS-triggered mucociliary clearance” value is recorded as “extended the duration of HTS-triggered mucociliary clearance”.
For the compound `O=C(O)c1ccc(/C=C2\SC(=S)N(c3cccc(C(F)(F)F)c3)C2=O)cc1` [CFTRinh172], the “effect on HTS-triggered ASL secretion, time course” value in the test on isolated swine trachea (wild-type swine trachea preparations ex vivo, FIG. 8) is “decreases the effect of HTS on ASL secretion”.
Consider `Ic1ccccc1CN[C@@H]1C2CCN(CC2)[C@@H]1C(c1ccccc1)c1ccccc1` [L-703606], for which the “effect on HTS-triggered ASL layer height increase” value in the test with isolated swine trachea (setting [2]) is on record as “significantly reduced”. The “effect on ASL layer height in ITS-treated preparations” value in the test with isolated swine trachea (ex vivo wild-type trachea, ITS 0.9% w/v NaCl, 18 min) is on record as “had no effect”. The “effect on response to HTS treatment in preparations incubated with CFTRinh172” value with isolated swine trachea (ex vivo, CFTRinh172 100 μM (model of airways without CFTR function), 18 min) is “unaffected”.
As for `N=C(N)NC(=O)c1nc(Cl)c(N)nc1N` [amiloride], the “effect on HTS-triggered ASL layer height increase” value in the test on isolated swine trachea (setting [2]) was “did not affect HTS treatment”.
Turning to `CN1[C@@H]2CC[C@H]1C[C@@H](OC(=O)C(CO)c1ccccc1)C2` (stereo partly shown) [atropine], in the test with isolated swine trachea, the “effect on ASL layer height in ITS-treated preparations” value is “had no effect”, the “effect on HTS-triggered ASL layer height increase” value was “reduced HTS-triggered ASL secretion”, the “effect on ITS-treated preparations incubated with CFTRinh172” value is reported as “had no effect” and the “effect on response to HTS treatment in preparations incubated with CFTRinh172” value is recorded as “reduced the response to HTS treatment”.
`COc1cc(CNC(=O)CCCC/C=C/C(C)C)ccc1O` [capsaicin, (6E)-N-[(4-Hydroxy-3-methoxyphenyl)methyl]-8-methylnon-6-enamide]: in the test on airway submucosal glands, the “ASL secretion by the submucosal glands” value is “triggers significant ASL secretion”. For the same compound, the “HTS-triggered increase in mucociliary clearance” value in test [1] (WT swine airways, added to HTS, FIG. 13) is given as “augmented”. Further, the “ITS-triggered increase in mucociliary clearance” value in test [1] (WT swine airways, added to ITS, FIG. 13) is given as “augmented”.
As to `CC1CCC(C(C)C)C(O)C1` (stereo not shown) [menthol, 5-Methyl-2-(propan-2-yl)cyclohexan-1-ol], in the test with live wild-type swine, the duration of treatment entry is “increase the intensity and duration of treatment”; the intensity of treatment result is “increase the intensity and duration of treatment”. For the same compound, in the test with airway submucosal glands, the “ASL secretion by the submucosal glands” value is “triggers significant ASL secretion”.
